According to article PMC10288926 (Journal of Enzyme Inhibition and Medicinal Chemistry, 2023):
Like-named read-outs stand apart in the source and are kept apart here.

How the values were obtained:
ALK^L1196M = ALK^L1196M (Homo sapiens, UniProt Q9UM73, L1196M); test: HTRF KinEASE-TK kinase inhibitory assay, ALK^L1196M; assay type: biochemical
ROS1 = ROS1 (Homo sapiens, UniProt P08922); test: HTRF KinEASE-TK kinase inhibitory assay, ROS1; assay type: biochemical; settings: for inhibition at 1 µM: read-out: ROS1 Inhibition (1μM); for ROS1 Inhibition (1μM): kinase inhibition % at 1 μM
ALK^WT = ALK^WT (Homo sapiens, UniProt Q9UM73); test: HTRF KinEASE-TK kinase inhibitory assay, ALK wild type; assay type: biochemical; settings: for ALK Inhibition (1μM): kinase inhibition % at 1 μM
Ba/F3 EML4-ALK^WT cell = Ba/F3 EML4-ALK^WT cell (Homo sapiens, UniProt Q9HC35+Q9UM73); assay type: cell-based; settings: read-out: Ba/F3 cellular activities (nM) EML4-ALK^WT; 72 h exposure, IC50, at least three independent experiments
Ba/F3 CD74-ROS1^WT cell = Ba/F3 CD74-ROS1^WT cell (Homo sapiens, UniProt P04233+P08922); test: Antiproliferative CCK-8 assay, Ba/F3 CD74-ROS1^WT; assay type: cell-based; settings: 72 h exposure, IC50, at least three independent experiments; for IC50: read-out: Ba/F3 cellular activities (nM) CD74-ROS1^WT
[1] = tested on: NCI-H3122 cell line harbouring EML4-ALK fusion; test: Antiproliferative MTT assay, NCI-H3122; assay type: cell-based, human; settings: read-out: Cellular IC50 (μM) NCI-H3122
c-MET = c-MET (Homo sapiens, UniProt P08581); test: HTRF kinase inhibitory assay, c-MET; assay type: biochemical; settings: for c-MET Inhibition (1μM): kinase inhibition % at 1 μM
[2] = target: Ba/F3 CD74-ROS1^G2032R cell (Homo sapiens, UniProt P04233+P08922, G2032R); test: Antiproliferative CCK-8 assay, Ba/F3 CD74-ROS1^G2032R; assay type: cell-based; settings: for IC50: read-out: Ba/F3 cellular activities (nM) CD74-ROS1^G2032R, 72 h exposure, IC50, at least three independent experiments
[3] = tested on: HCC-78 cell line harbouring SLC34A2-ROS1 fusion; test: Antiproliferative MTT assay, HCC-78; assay type: cell-based, human; settings: read-out: Cellular IC50 (μM) HCC-78
ALK^G1202R = ALK^G1202R (Homo sapiens, UniProt Q9UM73, G1202R); test: HTRF KinEASE-TK kinase inhibitory assay, ALK^G1202R; assay type: biochemical
[4] = target: Ba/F3 CD74-ROS1^L2026M cell (Homo sapiens, UniProt P04233+P08922, L2026M); test: Antiproliferative CCK-8 assay, Ba/F3 CD74-ROS1^L2026M; assay type: cell-based; settings: read-out: Ba/F3 cellular activities (nM) CD74-ROS1^L2026M; 72 h exposure, IC50, at least three independent experiments
[5] = target: Ba/F3 EML4-ALK^L1196M cell (Homo sapiens, UniProt Q9HC35+Q9UM73, L1196M); assay type: cell-based; settings: read-out: Ba/F3 cellular activities (nM) EML4-ALK^L1196M; 72 h exposure, IC50, at least three independent experiments
[6] = tested on: phosphorylation of ROS1 and ERK in CD74-ROS1^WT cell; test: Western blot of ROS1 and ERK phosphorylation, CD74-ROS1^WT Ba/F3 cells; assay type: cell-based
[7] = tested on: phosphorylation of ROS1 and ERK in CD74-ROS1^L2026M cell; test: Western blot of ROS1 and ERK phosphorylation, CD74-ROS1^L2026M Ba/F3 cells; assay type: cell-based
ROS1-G2032R = settings: read-out: cellular IC50 ROS1-G2032R; cited from earlier work
ALK = settings: read-out: enzymatic IC50 against ALK; cited from earlier work
NCI-H3122 cells = test: Apoptosis assay; assay type: cell-based, human; settings: 48 h, vehicle 11.24%
HCC-78 cells = test: Apoptosis assay; assay type: cell-based, human
[8] = tested on: phosphorylation of ALK in EML4-ALK^L1196M cell; test: Western blot of phosphorylation, EML4-ALK^L1196M Ba/F3 cells; assay type: cell-based
[9] = tested on: ROS1 phosphorylation in CD74-ROS1^G2032R cell; test: Western blot of ROS1 phosphorylation, CD74-ROS1^G2032R Ba/F3 cells; assay type: cell-based; settings: up to 1000 nM
[10] = read-out: ROS1 IC50, average of two independent experiments
[11] = read-out: Enzymatic activities (nM) ALK^L1196M, IC50, average of two independent experiments
[12] = average of two independent experiments
[13] = MTT, 72 h, mean of at least three independent experiments
[14] = read-out: Enzymatic activities (nM) ALK^G1202R, IC50, average of two independent experiments
[15] = average of two independent experiments, 1 µM

Row | Compound | IC50 (Ba/F3 EML4-ALK^WT cell) [nM] | IC50 (Ba/F3 CD74-ROS1^WT cell) [nM] | IC50 [2] [nM] | IC50 [4] [nM] | IC50 [5] [nM] | IC50 (ROS1; [10]) [nM] | ROS1 Inhibition (1μM) (ROS1; [12]) [%] | ALK Inhibition (1μM) (ALK^WT) [%] | IC50 (ALK^WT; read-out: ALK IC50) [nM] | IC50 [1, 13] [µM] | c-MET Inhibition (1μM) (c-MET) [%] | IC50 [3, 13] [µM] | IC50 (ALK^G1202R; [14]) [nM] | other results
1 | C[C@@H](Oc1cc(-c2cnn(C)c2)cnc1N)c1ccccc1-c1ccccc1 [B08, (R)-3–(1-([1,1'-biphenyl]-2-yl)ethoxy)-5–(1-methyl-1H-pyrazol-4-yl)pyridin-2-amine] | 681 ± 151 | 20.9 ± 1.7 | 317 ± 92.1 | 168 ± 56.3 | 1810 ± 270 | – | – | – | – | – | – | – | – | IC50 (ALK^L1196M): > 1000 nM; IC50 (ROS1): 37.4 nM; fold more potent than compound B03, ROS1 IC50 (ROS1): about 10 fold; inhibition at 1 µM (ROS1): 103%; IC50 (ALK^WT): 67.4 nM; fold more potent than compound B03, ALK IC50 (ALK^WT): ~4 fold; inhibition at 1 µM (ALK^WT; read-out: ALK Inhibition (1μM)): 100%; IC50 ([1]; Homo sapiens, NCI-H3122, 72 h): 5.7 ± 0.6 µM; inhibition at 1 µM (c-MET; read-out: c-MET Inhibition (1μM)): 64%; IC50 ([3]; Homo sapiens, HCC78, 72 h): 4.6 ± 0.8 µM; IC50 (ALK^G1202R): 195 nM
2 | C[C@@H](Oc1cc(-c2cnn(C3CCNCC3)c2)cnc1N)c1c(Cl)ccc(F)c1Cl [Crizotinib, reference compound] | – | – | – | – | – | – | – | – | – | – | – | – | – | phosphorylation of ROS1 and ERK, CD74-ROS1^WT cell [6]: attenuated phosphorylation of ROS1 and its key downstream molecule ERK in a dose-dependent manner; inhibition at 1 µM (ROS1): 101%; IC50 ([3]; Homo sapiens, HCC78, 72 h): 4.5 ± 1.4 µM; phosphorylation of ROS1 and ERK, CD74-ROS1^L2026M cell [7]: attenuated phosphorylation of ROS1 and its key downstream molecule ERK in a dose-dependent manner
3 | C[C@H]1Oc2cc(cnc2N)-c2c(nn(C)c2C#N)CN(C)C(=O)c2ccc(F)cc21 [Lorlatinib] | – | – | – | – | – | – | – | – | – | – | – | – | – | IC50 (ROS1-G2032R): 203 nM
4 | C[C@@H](Oc1cc(-c2ccc3c(c2)NC(=O)C32CCN(C)CC2)cnc1N)c1c(Cl)ccc(F)c1Cl [SMU-B, reference compound] | – | – | – | – | – | 1.48 | – | – | – | – | – | – | – | IC50 (ALK): < 0.5 nM
5 | (R)-5–(5-(1-([1,1'-biphenyl]-2-yl)ethoxy)-6-aminopyridin-3-yl)-1'-methylspiro[indoline-3,4'-piperidin]-2-one [C01] | 145 ± 36 | 7.6 ± 0.6 | 42.3 | 33.1 ± 1.4 | 120 ± 17.3 | 4.7 | 100 | 101 | 25.6 | 3 ± 0.1 | 70 | 3.9 ± 0.5 | 49.1 | percentage of apoptotic NCI-H3122 cell (NCI-H3122 cells; 1.5 μM (IC50/2)): 15.61%; percentage of apoptotic NCI-H3122 cell (NCI-H3122 cells; 3.0 μM (1 IC50)): 29.47%; percentage of apoptotic NCI-H3122 cell (NCI-H3122 cells; 6.0 μM (2 IC50)): 35.13%; phosphorylation of ROS1 and ERK, CD74-ROS1^WT cell [6]: attenuated phosphorylation of ROS1 and its key downstream molecule ERK in a dose-dependent manner; IC50 (ALK^L1196M; [11]): 404 nM; Ba/F3 cellular activities (nM) CD74-ROS1^WT (Ba/F3 CD74-ROS1^WT cell): comparable to Crizotinib; percentage of apoptotic HCC-78 cell (HCC-78 cells; 2.0 μM (IC50/2), 48 h, vehicle 10.7%): 15.9%; percentage of apoptotic HCC-78 cell (HCC-78 cells; 7.8 μM (2 IC50), 48 h, vehicle 10.7%): 31.7%; percentage of apoptotic HCC-78 cell (HCC-78 cells; C01 3.9 μM (1 IC50) vs Crizotinib 4.5 μM (1 IC50)): superior to that of Crizotinib treatment group; fold more potent than Crizotinib, CD74-ROS1^G2032R cell ([2]; ratio of cellular IC50 to Crizotinib): about 30 fold; phosphorylation of ROS1 and ERK, CD74-ROS1^L2026M cell [7]: attenuated phosphorylation of ROS1 and its key downstream molecule ERK in a dose-dependent manner; phosphorylation, EML4-ALK^L1196M cell [8]: persistent potency; fold potency superior to Crizotinib, ALK^G1202R enzyme (ALK^G1202R; ratio of enzymatic IC50 to Crizotinib): 10 fold; ROS1 phosphorylation, CD74-ROS1^G2032R cell [9]: significant inhibition of ROS1 phosphorylation occurred in a dose-dependent manner
6 | (R)-5–(6-amino-5–(1-(4'-(trifluoromethoxy)-[1,1'-biphenyl]-2-yl)ethoxy)pyridin-3-yl)-1'-methylspiro[indoline-3,4'-piperidin]-2-one [C07] | – | – | – | – | – | 73.6 | 95 | 55 | 414 | 2.4 ± 0.1 | 18 | 4.2 ± 0.2 | – | –
7 | (R)-5–(6-amino-5–(1-(4'-fluoro-[1,1'-biphenyl]-2-yl)ethoxy)pyridin-3-yl)-1'-methylspiro[indoline-3,4'-piperidin]-2-one [C02] | 191 ± 51.8 | 5.4 ± 1 | 107 ± 12.6 | 21.3 ± 4.7 | 148 ± 27.3 | 4.6 | – | – | 30.1 | 2.8 ± 0.9 | – | 4.4 ± 0.5 | 276 | IC50 (ALK^L1196M; [11]): 643 nM; ROS1 Inhibition (1μM) (ROS1; [15]): 102%; ALK Inhibition (1μM) (ALK^WT; 1 µM): 98%; Ba/F3 cellular activities (nM) CD74-ROS1^WT (Ba/F3 CD74-ROS1^WT cell): comparable to Crizotinib; c-MET Inhibition (1μM) (c-MET; 1 µM): 69%
8 | (R)-5–(6-amino-5–(1-(4'-fluoro-[1,1'-biphenyl]-2-yl)ethoxy)pyridin-3-yl)-1'-methylspiro[indoline-3,4'-piperidin]-2-one [C06] | – | – | – | – | – | 31.2 | – | – | 214 | 1.4 ± 0.1 | – | 3.1 ± 0.3 | – | ROS1 Inhibition (1μM) (ROS1; [15]): 98%; ALK Inhibition (1μM) (ALK^WT; 1 µM): 91%; c-MET Inhibition (1μM) (c-MET; 1 µM): 58%
9 | (R)-5–(6-amino-5–(1-(4'-methoxy-[1,1'-biphenyl]-2-yl)ethoxy)pyridin-3-yl)-1'-methylspiro[indoline-3,4'-piperidin]-2-one [C03] | 228 ± 47.3 | 18.3 ± 1.2 | 94.4 ± 31.9 | 38.3 ± 5.9 | 185 ± 22.2 | 11.6 | 101 | 94 | 56.1 | 1.9 ± 0.1 | 63 | 4.6 ± 0.23 | 492 | –
